From PubChem BioAssay (NCI)
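Tested at 5 concentrations; 48 h exposure; 96-well plates; endpoints linearly interpolated, else capped at highest concentration. At the TGI there is no net growth.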

Legend:
Experiment in all cases: NCI-60 cell line screen, 48 h
UACC-62 melanoma = system: UACC-62 melanoma
PC-3 prostate = system: PC-3 prostate
EKVX NSCLC = system: EKVX NSCLC
RPMI-8226 leukemia = system: RPMI-8226 leukemia
T-47D breast = system: T-47D breast
SK-MEL-5 melanoma = system: SK-MEL-5 melanoma
KM12 colon = system: KM12 colon
MDA-MB-231 breast = system: MDA-MB-231 breast
SN12C renal = system: SN12C renal
HCC-2998 colon = system: HCC-2998 colon
NCI-H460 lung = system: NCI-H460 lung
786-0 renal = system: 786-0 renal
MDA-MB-435 = system: MDA-MB-435
A549 NSCLC = system: A549 NSCLC
OVCAR-8 ovarian = system: OVCAR-8 ovarian
MCF7 breast = system: MCF7 breast
SF-295 CNS = system: SF-295 CNS
SK-OV-3 ovarian = system: SK-OV-3 ovarian
TK-10 renal = system: TK-10 renal
U251 CNS = system: U251 CNS
UO-31 renal = system: UO-31 renal
SK-MEL-2 melanoma = system: SK-MEL-2 melanoma
CAKI-1 renal = system: CAKI-1 renal
HCT-116 colon = system: HCT-116 colon
LOX IMVI melanoma = system: LOX IMVI melanoma
MDA-N = system: MDA-N
SF-268 CNS = system: SF-268 CNS
SNB-75 CNS = system: SNB-75 CNS
HT29 colon = system: HT29 colon
HS 578T breast = system: HS 578T breast
HL-60(TB) leukemia = system: HL-60(TB) leukemia
SR leukemia = system: SR leukemia
OVCAR-4 ovarian = system: OVCAR-4 ovarian
SNB-19 CNS = system: SNB-19 CNS
HOP-62 NSCLC = system: HOP-62 NSCLC
NCI-H522 lung = system: NCI-H522 lung
MALME-3M melanoma = system: MALME-3M melanoma
ACHN renal = system: ACHN renal
SF-539 CNS = system: SF-539 CNS
COLO 205 colon = system: COLO 205 colon
HOP-92 NSCLC = system: HOP-92 NSCLC
NCI/ADR-RES ovarian = system: NCI/ADR-RES ovarian
IGROV1 ovarian = system: IGROV1 ovarian
SK-MEL-28 melanoma = system: SK-MEL-28 melanoma
DU-145 prostate = system: DU-145 prostate
MOLT-4 leukemia = system: MOLT-4 leukemia
A498 renal = system: A498 renal
NCI-H23 lung = system: NCI-H23 lung
BT-549 breast = system: BT-549 breast
HCT-15 colon = system: HCT-15 colon
M14 melanoma = system: M14 melanoma
OVCAR-5 ovarian = system: OVCAR-5 ovarian
K-562 leukemia = system: K-562 leukemia
RXF 393 renal = system: RXF 393 renal
SW-620 colon = system: SW-620 colon
CCRF-CEM leukemia = system: CCRF-CEM leukemia
OVCAR-3 ovarian = system: OVCAR-3 ovarian
UACC-257 melanoma = system: UACC-257 melanoma
NCI-H226 lung = system: NCI-H226 lung

COc1ccc(/C=C/C(=O)Oc2ccc(/C=C3\CCCCC3=O)cc2)cc1
TGI (UACC-62 melanoma): > 100 µM
TGI (PC-3 prostate): > 100 µM
TGI (EKVX NSCLC): > 100 µM
TGI (RPMI-8226 leukemia): 13.9 µM
TGI (T-47D breast): > 100 µM
TGI (SK-MEL-5 melanoma): > 100 µM
TGI (KM12 colon): > 100 µM
TGI (MDA-MB-231 breast): > 83.9 µM
TGI (SN12C renal): > 100 µM
TGI (HCC-2998 colon): > 72.3 µM
TGI (NCI-H460 lung): > 100 µM
TGI (786-0 renal): > 100 µM
TGI (MDA-MB-435): > 100 µM
TGI (A549 NSCLC): > 100 µM
TGI (OVCAR-8 ovarian): > 100 µM
TGI (MCF7 breast): > 100 µM
TGI (SF-295 CNS): 49.4 µM
TGI (SK-OV-3 ovarian): > 100 µM
TGI (TK-10 renal): > 100 µM
TGI (U251 CNS): > 100 µM
TGI (UO-31 renal): > 100 µM
TGI (SK-MEL-2 melanoma): > 100 µM
TGI (CAKI-1 renal): > 100 µM
TGI (HCT-116 colon): > 95.4 µM
TGI (LOX IMVI melanoma): > 100 µM
TGI (MDA-N): > 100 µM
TGI (SF-268 CNS): > 69.5 µM
TGI (SNB-75 CNS): > 100 µM
TGI (HT29 colon): 26.3 µM
TGI (HS 578T breast): > 100 µM
TGI (HL-60(TB) leukemia): > 83.6 µM
TGI (SR leukemia): > 100 µM
TGI (OVCAR-4 ovarian): > 90.2 µM
TGI (SNB-19 CNS): > 100 µM
TGI (HOP-62 NSCLC): > 77.3 µM
TGI (NCI-H522 lung): > 100 µM
TGI (MALME-3M melanoma): > 100 µM
TGI (ACHN renal): > 100 µM
TGI (SF-539 CNS): > 100 µM
TGI (COLO 205 colon): > 93.2 µM
TGI (HOP-92 NSCLC): > 100 µM
TGI (NCI/ADR-RES ovarian): > 100 µM
TGI (IGROV1 ovarian): > 100 µM
TGI (SK-MEL-28 melanoma): > 100 µM
TGI (DU-145 prostate): > 100 µM
TGI (MOLT-4 leukemia): 7.51 µM
TGI (A498 renal): > 100 µM
TGI (NCI-H23 lung): > 100 µM
TGI (BT-549 breast): > 100 µM
TGI (HCT-15 colon): > 100 µM
TGI (M14 melanoma): > 100 µM
TGI (OVCAR-5 ovarian): > 100 µM
TGI (K-562 leukemia): > 100 µM
TGI (RXF 393 renal): > 100 µM
TGI (SW-620 colon): > 100 µM
TGI (CCRF-CEM leukemia): 6.77 µM
TGI (OVCAR-3 ovarian): > 100 µM
TGI (UACC-257 melanoma): > 100 µM
TGI (NCI-H226 lung): > 100 µM

C=C(CC[C@@H](C)[C@H]1CC[C@H]2[C@@H]3C[C@@H](O)[C@H]4C[C@@H](O)CC[C@]4(CO)[C@H]3CC[C@]12C)C(C)C
TGI (UACC-62 melanoma): 15 µM
TGI (PC-3 prostate): 10.8 µM
TGI (EKVX NSCLC): 4.34 µM
TGI (RPMI-8226 leukemia): 11.6 µM
TGI (T-47D breast): 8.47 µM
TGI (SK-MEL-5 melanoma): 15.9 µM
TGI (KM12 colon): 8.01 µM
TGI (MDA-MB-231 breast): 10.4 µM
TGI (SN12C renal): 12.6 µM
TGI (HCC-2998 colon): 6.33 µM
TGI (NCI-H460 lung): 7.14 µM
TGI (786-0 renal): 11.1 µM
TGI (MDA-MB-435): 14.2 µM
TGI (A549 NSCLC): 11.1 µM
TGI (OVCAR-8 ovarian): 12.5 µM
TGI (MCF7 breast): 9.53 µM
TGI (SF-295 CNS): 17.1 µM
TGI (SK-OV-3 ovarian): 16.3 µM
TGI (TK-10 renal): 5.47 µM
TGI (U251 CNS): 13 µM
TGI (UO-31 renal): 11.1 µM
TGI (SK-MEL-2 melanoma): 13.9 µM
TGI (CAKI-1 renal): 11.8 µM
TGI (HCT-116 colon): 8.91 µM
TGI (LOX IMVI melanoma): 9 µM
TGI (MDA-N): 15.6 µM
TGI (SF-268 CNS): 12.6 µM
TGI (SNB-75 CNS): 15.1 µM
TGI (HT29 colon): 7.91 µM
TGI (HS 578T breast): 12.4 µM
TGI (HL-60(TB) leukemia): 14.9 µM
TGI (SR leukemia): 9.77 µM
TGI (OVCAR-4 ovarian): 13.4 µM
TGI (SNB-19 CNS): 15.3 µM
TGI (HOP-62 NSCLC): 14.8 µM
TGI (NCI-H522 lung): 11.1 µM
TGI (MALME-3M melanoma): 12.8 µM
TGI (ACHN renal): 12 µM
TGI (SF-539 CNS): 20.6 µM
TGI (COLO 205 colon): 15.8 µM
TGI (HOP-92 NSCLC): 15.5 µM
TGI (NCI/ADR-RES ovarian): 12.2 µM
TGI (IGROV1 ovarian): 12.6 µM
TGI (SK-MEL-28 melanoma): 10.3 µM
TGI (DU-145 prostate): 10 µM
TGI (MOLT-4 leukemia): 10.8 µM
TGI (A498 renal): 13.3 µM
TGI (NCI-H23 lung): 12 µM
TGI (BT-549 breast): 15 µM
TGI (HCT-15 colon): 8.27 µM
TGI (M14 melanoma): 14.7 µM
TGI (OVCAR-5 ovarian): 13.3 µM
TGI (K-562 leukemia): 6.92 µM
TGI (RXF 393 renal): 8.42 µM
TGI (SW-620 colon): 16.5 µM
TGI (CCRF-CEM leukemia): 10.5 µM
TGI (OVCAR-3 ovarian): 8.77 µM
TGI (UACC-257 melanoma): 14.8 µM
TGI (NCI-H226 lung): 18.4 µM

Cc1ccc(N=Nc2c(O)c(S(=O)(=O)O)cc3cc(S(=O)(=O)O)ccc23)c(C)c1
TGI (UACC-62 melanoma): > 100 µM
TGI (PC-3 prostate): > 100 µM
TGI (EKVX NSCLC): > 100 µM
TGI (RPMI-8226 leukemia): > 100 µM
TGI (T-47D breast): > 100 µM
TGI (SK-MEL-5 melanoma): > 100 µM
TGI (KM12 colon): > 100 µM
TGI (MDA-MB-231 breast): > 100 µM
TGI (SN12C renal): > 100 µM
TGI (HCC-2998 colon): > 100 µM
TGI (NCI-H460 lung): > 100 µM
TGI (786-0 renal): > 100 µM
TGI (MDA-MB-435): > 100 µM
TGI (A549 NSCLC): > 100 µM
TGI (OVCAR-8 ovarian): > 100 µM
TGI (MCF7 breast): > 100 µM
TGI (SF-295 CNS): > 100 µM
TGI (SK-OV-3 ovarian): > 100 µM
TGI (TK-10 renal): > 100 µM
TGI (U251 CNS): > 100 µM
TGI (UO-31 renal): > 100 µM
TGI (SK-MEL-2 melanoma): > 100 µM
TGI (CAKI-1 renal): > 100 µM
TGI (HCT-116 colon): > 100 µM
TGI (LOX IMVI melanoma): > 100 µM
TGI (MDA-N): > 100 µM
TGI (SF-268 CNS): > 100 µM
TGI (SNB-75 CNS): > 100 µM
TGI (HT29 colon): > 100 µM
TGI (HS 578T breast): > 100 µM
TGI (HL-60(TB) leukemia): > 100 µM
TGI (SR leukemia): > 100 µM
TGI (OVCAR-4 ovarian): > 100 µM
TGI (SNB-19 CNS): > 100 µM
TGI (HOP-62 NSCLC): > 100 µM
TGI (NCI-H522 lung): > 100 µM
TGI (MALME-3M melanoma): > 100 µM
TGI (ACHN renal): > 100 µM
TGI (SF-539 CNS): > 100 µM
TGI (COLO 205 colon): > 100 µM
TGI (HOP-92 NSCLC): > 100 µM
TGI (NCI/ADR-RES ovarian): > 100 µM
TGI (IGROV1 ovarian): > 100 µM
TGI (SK-MEL-28 melanoma): > 100 µM
TGI (DU-145 prostate): > 100 µM
TGI (MOLT-4 leukemia): > 100 µM
TGI (A498 renal): > 100 µM
TGI (NCI-H23 lung): > 100 µM
TGI (BT-549 breast): > 100 µM
TGI (HCT-15 colon): > 100 µM
TGI (M14 melanoma): > 100 µM
TGI (OVCAR-5 ovarian): > 100 µM
TGI (K-562 leukemia): > 100 µM
TGI (RXF 393 renal): > 100 µM
TGI (SW-620 colon): > 100 µM
TGI (CCRF-CEM leukemia): > 100 µM
TGI (OVCAR-3 ovarian): > 100 µM
TGI (UACC-257 melanoma): > 100 µM
TGI (NCI-H226 lung): > 100 µM
